Converted amounts (≈) assume the structure as drawn.
Assays:
[1] = in vivo; details: rat, plasma, po, 2.5 mg/kg
[2] = in vivo; details: rat, po, 2.5 mg/kg
[3] = physchem; details: aqueous
[4] = physchem; details: aqueous; remark: listed apart in the source

**Q.** Which results are given for `CC(C)S(=O)(=O)c1ccccc1Nc1nc(Nc2cccc(NC(=O)CN)c2)ncc1Cl`?
**A.** AUC(0-inf) [1]: 454 ng·h/mL; half-life [2]: 30 min; solubility [3]: < 100 µg/mL; solubility [4]: 4000 µg/mL (≈ 8.42 mM)

— ChEMBL document CHEMBL3351234, “Discovery of novel 2,4-diarylaminopyrimidine analogues (DAAPalogues) showing potent inhibitory activities against both wild-type and mutant ALK kinases” (J Med Chem, 2015)
